From ChEMBL document CHEMBL1201862, “PubChem BioAssay data set” (2004)
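Exposure lasted 48 hours, with cells grown in 96-well plates and compounds tested at five concentrations. GI50 is the concentration that inhibits growth by half.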 Calls of active or inactive are those of the source. Cut-off read from the data, not from the text of the source: active = GI50 up to about 1.1 µM and inactive = higher.

Columns and labels:
Assay in all cases: DTP human tumour cell line panel, 48 h
HCT-116 = tested on: HCT-116
HOP-62 = tested on: HOP-62
IGROV-1 = tested on: IGROV-1
MDA-MB-231 = tested on: MDA-MB-231
MDA-N = tested on: MDA-N
NCI-H23 = tested on: NCI-H23
OVCAR-5 = tested on: OVCAR-5
OVCAR-8 = tested on: OVCAR-8
RXF 393 = tested on: RXF 393
SF-268 = tested on: SF-268
SF-539 = tested on: SF-539
SK-MEL-5 = tested on: SK-MEL-5
SK-OV-3 = tested on: SK-OV-3
SNB-19 = tested on: SNB-19
SW-620 = tested on: SW-620
T47D = tested on: T47D
U-251 = tested on: U-251
CCRF-CEM = tested on: CCRF-CEM
SNB-75 = tested on: SNB-75

| Compound | GI50 (HCT-116) | GI50 (HOP-62) | GI50 (IGROV-1) | GI50 (MDA-MB-231) | GI50 (MDA-N) | GI50 (NCI-H23) | GI50 (OVCAR-5) | GI50 (OVCAR-8) | GI50 (RXF 393) | GI50 (SF-268) | GI50 (SF-539) | GI50 (SK-MEL-5) | GI50 (SK-OV-3) | GI50 (SNB-19) | GI50 (SW-620) | GI50 (T47D) | GI50 (U-251) | GI50 (CCRF-CEM) | GI50 (SNB-75) |
| --- | --- | --- | --- | --- | --- | --- | --- | --- | --- | --- | --- | --- | --- | --- | --- | --- | --- | --- | --- |
| Oc1ccccc1/C=N/Nc1nc(N/N=C/c2ccccc2O)nc(N/N=C/c2ccccc2O)n1 | 42.2 µM (inactive) | 44.6 µM (inactive) | 45.4 µM (inactive) | > 100 µM (inactive) | > 100 µM (inactive) | > 100 µM (inactive) | > 100 µM (inactive) | > 100 µM (inactive) | 87.1 µM (inactive) | > 100 µM (inactive) | > 100 µM (inactive) | > 100 µM (inactive) | 71.9 µM (inactive) | > 100 µM (inactive) | > 100 µM (inactive) | 47.9 µM (inactive) | 47.1 µM (inactive) |  |  |
| CCCCCCc1nn2c(-c3ccncc3)nnc2s1 | > 10 µM (inactive) | > 10 µM (inactive) | > 10 µM (inactive) | > 10 µM (inactive) | > 10 µM (inactive) | > 10 µM (inactive) | > 10 µM (inactive) | > 10 µM (inactive) | > 10 µM (inactive) | > 10 µM (inactive) | > 10 µM (inactive) | > 10 µM (inactive) | > 10 µM (inactive) | > 10 µM (inactive) | > 10 µM (inactive) | > 10 µM (inactive) | > 10 µM (inactive) | > 10 µM (inactive) |  |
| CCN(CC)CCOc1ccc(N2Cc3cc(OC)c(OC)cc3C2=O)cc1 | > 100 µM (inactive) | > 100 µM (inactive) | > 100 µM (inactive) | > 100 µM (inactive) | > 100 µM (inactive) | > 100 µM (inactive) | > 100 µM (inactive) | > 100 µM (inactive) | > 100 µM (inactive) | > 100 µM (inactive) | > 100 µM (inactive) | > 100 µM (inactive) | > 100 µM (inactive) | > 100 µM (inactive) | > 100 µM (inactive) | > 100 µM (inactive) | > 100 µM (inactive) | > 100 µM (inactive) |  |
| CC(C)(C)C(=O)C(CC(=O)c1ccccc1)C(=O)C(C)(C)C | > 100 µM (inactive) | 99.1 µM (inactive) | > 100 µM (inactive) | > 100 µM (inactive) | > 100 µM (inactive) | > 100 µM (inactive) | > 100 µM (inactive) | > 100 µM (inactive) |  | 83.9 µM (inactive) | > 100 µM (inactive) | > 100 µM (inactive) | > 100 µM (inactive) | > 100 µM (inactive) | > 100 µM (inactive) | > 100 µM (inactive) | > 100 µM (inactive) | > 100 µM (inactive) | 15.3 µM (inactive) |
| N=C(N)c1ccc(/N=N\c2c(O)c(C(=O)Nc3ccccc3)cc3ccccc23)cc1 | 3.3 µM (inactive) | 14.5 µM (inactive) | 18.7 µM (inactive) | 8.04 µM (inactive) | 35.7 µM (inactive) | 21.9 µM (inactive) | 31.6 µM (inactive) | 16.1 µM (inactive) | > 43.4 µM (inactive) | 19.9 µM (inactive) | 21 µM (inactive) | 22.4 µM (inactive) | > 32.6 µM (inactive) | 19.6 µM (inactive) | 15.6 µM (inactive) | 17.4 µM (inactive) | 3.76 µM (inactive) | 2.33 µM (inactive) | 12.9 µM (inactive) |
| CC(=O)Oc1ccn2nc(C)c(Br)c2c1Br | 23 µM (inactive) | 44.4 µM (inactive) | 32.5 µM (inactive) | 23 µM (inactive) | 17.6 µM (inactive) | 18.3 µM (inactive) |  | 29.4 µM (inactive) | > 10 µM (inactive) | 25.5 µM (inactive) | 21.2 µM (inactive) | 17.5 µM (inactive) |  | 49.9 µM (inactive) | 30.5 µM (inactive) | 29.3 µM (inactive) | 35.1 µM (inactive) | 21.6 µM (inactive) | 22.1 µM (inactive) |
| N#CC(C#N)=C1C(=O)NC(N)=C1C#N | > 100 µM (inactive) | > 100 µM (inactive) | > 100 µM (inactive) | > 100 µM (inactive) | > 100 µM (inactive) | > 100 µM (inactive) | > 100 µM (inactive) | > 100 µM (inactive) | > 100 µM (inactive) | > 100 µM (inactive) |  | > 100 µM (inactive) | > 100 µM (inactive) | > 100 µM (inactive) | > 100 µM (inactive) | > 100 µM (inactive) | > 100 µM (inactive) | > 100 µM (inactive) |  |
| Clc1ccc(C2=NNC(c3cccc(Cl)c3)C2)cc1 (centres undefined) | 26.7 µM (inactive) | 32.2 µM (inactive) | 0.344 µM (active) | 18.7 µM (inactive) | 21.1 µM (inactive) | 25.8 µM (inactive) | 44.8 µM (inactive) |  | 31.3 µM (inactive) | 29.3 µM (inactive) | 37.2 µM (inactive) | 14.8 µM (inactive) | 22 µM (inactive) | 34.4 µM (inactive) | 23.2 µM (inactive) | 44.6 µM (inactive) | 16.5 µM (inactive) | 29 µM (inactive) | 26.8 µM (inactive) |
| CN1CC(S(=O)(=O)c2ccccc2)CC(S(=O)(=O)c2ccccc2)C1c1ccccc1 (centres undefined) | 10.4 µM (inactive) | 20 µM (inactive) | 25.9 µM (inactive) | 15.3 µM (inactive) | 11.6 µM (inactive) |  | 15.2 µM (inactive) | 28.7 µM (inactive) | 14.9 µM (inactive) | 16.2 µM (inactive) | 4.86 µM (inactive) | 14.6 µM (inactive) | 39.1 µM (inactive) | 23.4 µM (inactive) | 8.3 µM (inactive) | 18.2 µM (inactive) | 12.1 µM (inactive) |  |  |
| Cn1c(=O)[nH]n(-c2ccc3ccccc3c2)c1=O | > 100 µM (inactive) |  | > 100 µM (inactive) | > 100 µM (inactive) | > 100 µM (inactive) | > 100 µM (inactive) | > 100 µM (inactive) | > 100 µM (inactive) | > 100 µM (inactive) | > 100 µM (inactive) | > 100 µM (inactive) | > 100 µM (inactive) | > 100 µM (inactive) | > 100 µM (inactive) | > 100 µM (inactive) | > 100 µM (inactive) | > 100 µM (inactive) | > 100 µM (inactive) | > 100 µM (inactive) |
| O=C(c1ccco1)N(Cc1ccco1)C(=S)Nc1ccccc1 | 6.37 µM (inactive) | 36.6 µM (inactive) | 16.1 µM (inactive) | 13.3 µM (inactive) | 10.5 µM (inactive) | 13.5 µM (inactive) | 36.5 µM (inactive) | 19 µM (inactive) | 16 µM (inactive) | 20.2 µM (inactive) | 6.46 µM (inactive) | 17.5 µM (inactive) | > 100 µM (inactive) | 46.9 µM (inactive) | 12.4 µM (inactive) | 14.1 µM (inactive) | 28.3 µM (inactive) | 3.79 µM (inactive) | 18.5 µM (inactive) |
| C=C1CC/C=C(/C(=O)O)CC[C@H]2[C@@H]1CC2(C)C | > 100 µM (inactive) | > 100 µM (inactive) | > 100 µM (inactive) | > 100 µM (inactive) | > 100 µM (inactive) | > 100 µM (inactive) | > 100 µM (inactive) |  | > 100 µM (inactive) | > 100 µM (inactive) | > 100 µM (inactive) | > 100 µM (inactive) | > 100 µM (inactive) | > 100 µM (inactive) | > 100 µM (inactive) | > 100 µM (inactive) | > 100 µM (inactive) | > 100 µM (inactive) |  |
| COc1ccc(C2CCc3c(cnc4nc(N)nc(N)c34)C2)cc1 (centres undefined) | 1.73 µM (inactive) | 20.5 µM (inactive) | 1.09 µM (active) | 40.5 µM (inactive) | 1.04 µM (active) |  | 13.9 µM (inactive) | 5.4 µM (inactive) | 16.8 µM (inactive) | 12.9 µM (inactive) | 26.5 µM (inactive) | 11 µM (inactive) | 18.1 µM (inactive) | 33.7 µM (inactive) | 5.25 µM (inactive) | 31 µM (inactive) | 9.29 µM (inactive) |  | 10.3 µM (inactive) |
| CC(C)=CCC[C@@H](C)/C=C/C=C(\C)C(=O)CC[C@@H]1CC[N@+]2(C)CCCC[C@H]12 | > 100 µM (inactive) | > 100 µM (inactive) | 55.1 µM (inactive) | > 100 µM (inactive) | > 100 µM (inactive) | > 100 µM (inactive) | 50.4 µM (inactive) | > 100 µM (inactive) | 35.1 µM (inactive) | 71.1 µM (inactive) | > 100 µM (inactive) | > 100 µM (inactive) |  | 31.3 µM (inactive) | > 100 µM (inactive) | > 100 µM (inactive) | 23.9 µM (inactive) |  | 49.2 µM (inactive) |
| NC(Cc1ccc(S(=O)(=O)O)cc1)C(=O)NC(CCCCNC(=O)NCCCCC(NC(=O)C(N)Cc1ccc(S(=O)(=O)O)cc1)C(=O)NC(Cc1ccc(S(=O)(=O)O)cc1)C(=O)O)C(=O)NC(Cc1ccc(S(=O)(=O)O)cc1)C(=O)O (centres undefined) | > 100 µM (inactive) | > 100 µM (inactive) | > 100 µM (inactive) | > 100 µM (inactive) | > 100 µM (inactive) | > 100 µM (inactive) | > 100 µM (inactive) | > 100 µM (inactive) | > 100 µM (inactive) | > 100 µM (inactive) | > 100 µM (inactive) | > 100 µM (inactive) | > 100 µM (inactive) |  | > 100 µM (inactive) | > 100 µM (inactive) | > 100 µM (inactive) | > 100 µM (inactive) | > 100 µM (inactive) |
